Measured values reported in patent publication US10300060B2, “Trk-inhibiting compound” (ONO PHARMACEUTICAL CO., LTD., priority 2013, dated 2019).

Legend:
b-Raf = b-Raf (Homo sapiens (Human), UniProt P15056); test: Enzyme-inhibiting activity test of kinases other than Trk (selectivity experiment): b-Raf; format: biochemical; conditions: concentration of 3 μM; read-out: Inhibition rate (%) b-Raf
Procedure: (§1) A test substance (the present compound) was dissolved in dimethylsulfoxide to prepare a 100-fold concentration of the test concentration, 3 μM. The solution was further diluted to 25-fold with an assay buffer (20 mM HEPES, 0.01% Triton X-100, 2 mM DTT, pH 7.5) to obtain a test substance solution. In a similar manner a positive control substance solution was prepared with a positive control substance.
(§2) A 4-times concentration solution (5 μL) of the test substance prepared with the assay buffer, 5 μL of a 4-times concentration solution of substrate/ATP/metal (Mg) and 10 μL of a 2-times concentration solution of kinase were mixed in a well of a polypropylene 384-well plate and allowed to react at room temperature for 1 hour. The reaction was terminated by adding 60 μL of a Termination Buffer (QuickScout Screening Assist MSA; Carna Biosciences). The substrate peptide and the phosphorylated peptide in the reaction solution were separated and quantified. The kinase reaction was assessed from the product ratio (P/(P+S)) calculated from the height (S) of the peak of the substrate peptide and the height (P) of the peak of the phosphorylated peptide. Other kinases used in the kinase selectivity experiments were, for example, b-Raf and KDR. The following Table 3 indicates substrates, substrate concentrations, ATP concentrations and positive control substances used in respective kinase enzyme inhibition activity tests.

KDR = KDR (Homo sapiens (Human), UniProt P35968); test: Enzyme-inhibiting activity test of kinases other than Trk (selectivity experiment): KDR; format: biochemical; conditions: concentration of 3 μM; read-out: Inhibition rate (%) KDR
KDR, sequence (P35968 20-1356, species assumed): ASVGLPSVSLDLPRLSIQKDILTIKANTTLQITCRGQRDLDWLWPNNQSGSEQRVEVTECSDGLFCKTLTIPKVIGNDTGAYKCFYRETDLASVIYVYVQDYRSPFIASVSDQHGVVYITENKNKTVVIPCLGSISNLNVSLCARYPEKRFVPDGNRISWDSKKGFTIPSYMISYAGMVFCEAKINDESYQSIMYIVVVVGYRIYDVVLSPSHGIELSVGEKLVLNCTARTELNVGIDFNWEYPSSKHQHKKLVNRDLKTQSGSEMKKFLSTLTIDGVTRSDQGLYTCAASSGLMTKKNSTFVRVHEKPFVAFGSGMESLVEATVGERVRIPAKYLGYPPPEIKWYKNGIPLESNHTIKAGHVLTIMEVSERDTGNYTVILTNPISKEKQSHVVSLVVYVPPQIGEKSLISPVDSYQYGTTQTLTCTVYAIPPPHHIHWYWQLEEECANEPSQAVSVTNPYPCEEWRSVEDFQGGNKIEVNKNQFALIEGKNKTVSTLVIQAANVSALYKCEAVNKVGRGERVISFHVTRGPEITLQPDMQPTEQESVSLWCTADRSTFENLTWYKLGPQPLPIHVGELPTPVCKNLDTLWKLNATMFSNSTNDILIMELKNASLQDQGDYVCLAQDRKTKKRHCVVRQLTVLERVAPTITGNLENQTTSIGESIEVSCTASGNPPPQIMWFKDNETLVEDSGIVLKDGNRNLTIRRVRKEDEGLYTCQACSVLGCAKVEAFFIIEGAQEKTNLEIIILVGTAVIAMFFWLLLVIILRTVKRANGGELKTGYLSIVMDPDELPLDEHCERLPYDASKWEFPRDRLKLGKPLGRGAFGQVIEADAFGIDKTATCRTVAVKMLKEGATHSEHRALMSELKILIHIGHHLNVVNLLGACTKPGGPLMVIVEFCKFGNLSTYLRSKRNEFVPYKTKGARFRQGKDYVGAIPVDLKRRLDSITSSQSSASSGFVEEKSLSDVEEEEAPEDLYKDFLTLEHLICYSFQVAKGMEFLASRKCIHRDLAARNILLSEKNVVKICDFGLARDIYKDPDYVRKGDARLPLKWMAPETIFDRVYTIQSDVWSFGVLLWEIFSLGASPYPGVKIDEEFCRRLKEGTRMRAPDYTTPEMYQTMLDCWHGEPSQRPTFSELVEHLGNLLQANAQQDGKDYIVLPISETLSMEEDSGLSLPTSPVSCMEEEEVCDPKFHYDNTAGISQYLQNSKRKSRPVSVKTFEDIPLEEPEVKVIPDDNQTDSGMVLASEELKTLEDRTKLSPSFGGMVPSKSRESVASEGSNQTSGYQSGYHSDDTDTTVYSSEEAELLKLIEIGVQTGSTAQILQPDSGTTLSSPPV
Procedure: as §1, §2

b-Raf, sequence (P15056 whole entry, species assumed): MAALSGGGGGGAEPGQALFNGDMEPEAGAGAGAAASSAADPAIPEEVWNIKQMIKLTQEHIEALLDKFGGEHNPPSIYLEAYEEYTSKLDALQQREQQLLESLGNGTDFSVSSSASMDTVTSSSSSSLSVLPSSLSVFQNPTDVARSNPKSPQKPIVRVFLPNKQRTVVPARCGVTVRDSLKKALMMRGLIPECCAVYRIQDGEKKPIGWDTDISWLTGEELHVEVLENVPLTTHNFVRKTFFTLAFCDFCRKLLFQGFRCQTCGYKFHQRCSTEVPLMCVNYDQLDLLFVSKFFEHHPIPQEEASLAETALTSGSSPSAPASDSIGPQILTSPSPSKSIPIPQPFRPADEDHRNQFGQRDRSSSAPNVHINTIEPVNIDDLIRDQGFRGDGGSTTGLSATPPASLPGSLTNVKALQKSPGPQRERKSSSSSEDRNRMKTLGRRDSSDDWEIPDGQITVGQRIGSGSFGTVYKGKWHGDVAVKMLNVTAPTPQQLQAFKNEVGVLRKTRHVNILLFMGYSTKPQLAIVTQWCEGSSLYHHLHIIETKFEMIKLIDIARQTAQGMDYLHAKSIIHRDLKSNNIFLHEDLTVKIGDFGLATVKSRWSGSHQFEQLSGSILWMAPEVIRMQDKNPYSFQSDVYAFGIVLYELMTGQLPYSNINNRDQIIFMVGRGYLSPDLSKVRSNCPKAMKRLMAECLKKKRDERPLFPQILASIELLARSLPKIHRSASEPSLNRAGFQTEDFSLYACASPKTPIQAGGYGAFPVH

| SMILES | inhibition at 3 µM (b-Raf) [%] | inhibition at 3 µM (KDR) [%] |
| --- | --- | --- |
| Nc1ncc(Cl)cc1-c1ccc(Oc2ncc(NC(=O)Nc3cc(C(F)(F)F)ccc3-n3ccc(C(F)(F)F)n3)cn2)cc1 [Example 8-2, 1-(2-(4-(2-amino-5-chloropyridin-3-yl)phenoxy)pyrimidin-5-yl)-3-(5-(trifluoromethyl)-2-(3-(trifluoromethyl)-1H-pyrazol-1-yl)phenyl)urea] | 21 | 0 |
| Cn1nccc1-c1ccc(C(F)(F)F)cc1NC(=O)Nc1cnc(Oc2ccc(-c3cc(Cl)cnc3N)cc2)nc1 [Example 13-1, 1-(2-(4-(2-amino-5-chloropyridin-3-yl)phenoxy)pyrimidin-5-yl)-3-(2-(1-methyl-1H-pyrazol-5-yl)-5-(trifluoromethyl)phenyl)urea] | 33 | 7.5 |
| Nc1ncc(Cl)cc1-c1ccc(Oc2ncc(NC(=O)Nc3ccc(C(F)(F)F)cc3-n3cccn3)cn2)cc1 [Example 15-4, 1-(2-(1H-pyrazol-1-yl)-4-(trifluoromethyl)phenyl)-3-(2-(4-(2-amino-5-chloropyridin-3-yl)phenoxy)pyrimidin-5-yl)urea] | 0 | 0 |
| Nc1ncc(F)cc1-c1ccc(Oc2ncc(NC(=O)Nc3cc(C(F)(F)F)ccc3-c3ccccc3)cn2)cc1 [Example 15-58, 1-{2-[4-(2-amino-5-fluoro-3-pyridinyl)phenoxy]-5-pyrimidinyl}-3-[4-(trifluoromethyl)-2-biphenylyl]urea] | 30 | 0 |
| Nc1ncc(Cl)cc1-c1ccc(Oc2ncc(NC(=O)Nc3cc(Cl)ccc3-n3ccc(C(F)(F)F)n3)cn2)cc1 [Example 15-71, 1-{2-[4-(2-amino-5-chloro-3-pyridinyl)phenoxy]-5-pyrimidinyl}-3-{5-chloro-2-[3-(trifluoromethyl)-1H-pyrazol-1-yl]phenyl}urea] | 40 | 0 |
| CS(=O)(=O)c1ccc(C(F)(F)F)cc1NC(=O)Nc1cnc(Oc2ccc(-c3cc(F)cnc3N)cc2)nc1 [Example 15-96, 1-{2-[4-(2-amino-5-fluoro-3-pyridinyl)phenoxy]-5-pyrimidinyl}-3-[2-(methylsulfonyl)-5-(trifluoromethyl)phenyl]urea] | 22 | 2 |
| CN(C)S(=O)(=O)c1ccc(C(F)(F)F)cc1NC(=O)Nc1cnc(Oc2ccc(-c3cc(C(F)(F)F)cnc3N)cc2)nc1 [Example 15-105, 2-{[(2-{4-[2-amino-5-(trifluoromethyl)-3-pyridinyl]phenoxyl}-5-pyrimidinyl)carbamoyl]amino}-N,N-dimethyl-4-(trifluoromethyl)benzenesulfonamide] | 26 | 0 |
| O=C(Nc1cnc(Oc2ccc(-c3cnn4ccc(N5CCC5)nc34)cc2)nc1)Nc1cc(C(F)(F)F)ccc1-c1cccnc1 [Example 21-1, 1-(2-(4-(5-(azetidin-1-yl)pyrazolo[1,5-a]pyrimidin-3-yl)phenoxy)pyrimidin-5-yl)-3-(2-(pyridin-3-yl)-5-(trifluoromethyl)phenyl)urea] | 36 | 1.5 |
| Cn1nccc1-c1ccc(C(F)(F)F)cc1NC(=O)Nc1cnc(Oc2ccc(-c3cnn4ccc(N5CCC5)nc34)cc2)nc1 [Example 21-2, 1-(2-(4-(5-(azetidin-1-yl)pyrazolo[1,5-a]pyrimidin-3-yl)phenoxy)pyrimidin-5-yl)-3-(2-(1-methyl-1H-pyrazol-5-yl)-5-(trifluoromethyl)phenyl)urea] | 30 | 1 |
| Cc1ccn2ncc(-c3ccc(Oc4ncc(NC(=O)Nc5cc(C(F)(F)F)ccc5-c5cccnc5)cn4)cc3)c2n1 [Example 21-65, 1-{2-[4-(5-methylpyrazolo[1,5-a]pyrimidin-3-yl)phenoxy]-5-pyrimidinyl}-3-[2-(3-pyridinyl)-5-(trifluoromethyl)phenyl]urea] | 58 | 19 |
